Measured values: patent US9540325B2, “N1-cyclic amine-N5-substituted phenyl biguanide derivatives, methods of preparing the same and pharmaceutical composition comprising the same” (Immunomet Therapeutics, Inc., priority 2011, dated 2017)
Where a name gives a salt, the structure may show the parent alone.

Key:
Assay type in all cases: cell-based, human
AMPKα = assay: Measurement of AMPK activation effect (AMPKα Thr172 phosphorylation immunoassay) in MCF7 cells; settings: 24 hours
Procedure, shortened: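 MCF7 cells in DMEM/10% FBS were treated 24 h with derivatives at 5, 10 and 50 μM (metformin hydrochloride control, 0.05–10 mM). AMPKα Thr172 phosphorylation was measured by immunoassay on 20 μg lysate. AC150 (concentration giving 150% activation) came from concentration–response curves, with activation also reported at fixed concentrations.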

HCT116 cells = assay: Measurement of effect of inhibiting cancer cell proliferation (MTT); settings: Homo sapiens, HCT-116, 100 μM, 48 hours, read-out: Cell Growth Inhibition (%) at 100 μM
Procedure, shortened: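 HCT116 cells (~5,000/well, DMEM with 10% FBS) treated 48 h with compound at 0.39–100 μM, metformin hydrochloride control at 0.1–25 mM. Viability by MTT (3 h, formazan in DMSO, A560) relative to untreated wells; GIC50 from the viability curve, also viability at 100 μM.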

Snail = assay: EMT inhibitory effect by inhibition of Snail expression (immunoblotting) in MCF7 cells; settings: MCF7, 48 hours, untreated control = 100%
Method: Cells undergoing EMT owing to various cytokines and growth factors can acquire motility and thus move a distance to form tumors in new tissues. Therefore, the metastasis of cancer cells can be inhibited by controlling expression of EMT-related transcription factors to hinder EMT. Based on these facts, the activities of biguanide derivatives that inhibit Snail expression, which is a transcription factor inducing EMT in the MCF7 cell line derived from human breast cancer, were measured and simple experimental methods are described, as follows.
MCF7 cells derived from human breast cancer (commercially available from Korean Cell Line Bank) were cultured in a DMEM medium supplemented with 10% (v/v) fetal bovine serum (commercially available from Gibco Life Technologies (US)), put into a 6-well plate so that the number of cultured cells could amount to approximately 5×10^5 cells per well, and then incubated in an incubator supplied with 5% CO2 (culture temperature: 37° C., pH: 7.0 to 7.4). The culture media were treated with phenformin hydrochloride and the compounds synthesized in the examples at contents of 1 μM and 10 μM, respectively, and then incubated for 48 hours. Metformin hydrochloride was used as the control, and the cells were treated with 1 mM and 10 mM metformin hydrochloride. After 48 hours, the cells were lysed in a cell lysis buffer containing 10 mM Tris HCl (pH7.4), 100 mM NaCl, 1 mM EDTA, 1 mM EGTA, 1 mM NaF, 20 mM Na4P2O7, 2 mM Na3VO4, 1% TritonX-100, 10% glycerol, 0.5% deoxycholate and 1 mM PMSF. Then, 25 μg of the cell lysate was electrophoresized in an SDS-PAGE gel, and then transferred to a […] membrane (commercially available from Amersham Life Science). The membrane reacted with rat monoclonal anti-human Snail (commercially available from Cell signaling Technology) or mouse monoclonal anti-β-actin (commercially available from Santa cruz Biotechnology), and unbound antibodies were removed. In this case, anti-β-actin was used as the antibody to ensure that the amount of proteins loaded into the SDS-PAGE gel is identical. The membrane was reacted again with a secondary antibody, anti-rat IgG (commercially available from Cell signaling Technology) or anti-mouse IgG (commercially available from Santa Cruz Biotechnology). Finally, the antibody bound to the membrane was detected using an ECL Plus system (commercially available from Amersham Life Science). Also, the expression level of Snail with respect to β-actin was analyzed using a Scion image analysis program. Here, when it was assumed that the expression level of the untreated control was 100%, the expression level of the Snail by treatment with the compounds synthesized in the examples was indicated as a percentage (%).

[1] = tested on: MCF7 cells (breast cancer stem cell, mammosphere); assay: Measurement of effect of inhibiting mammosphere formation; settings: MCF7, 8 days; for Number of Mammospheres: size 50 um or more
Source text: The cancer stem cells refer to cancer cells that have self-regeneration or differentiation capacity which is characteristically innate to stem cells. Here, the cancer stem cells show resistance to conventional anticancer therapy and poor prognosis. Therefore, the biguanide derivative has an effect of inhibiting cancer recurrence by inhibiting formation and proliferation of cancer stem cells, especially, breast cancer stem cells (mammosphere). Accordingly, the effect of the biguanide derivative of inhibiting breast cancer stem cell (mammosphere) formation was measured in an MCF7 cell line derived from human breast cancer forming mammospheres, and simple experimental methods are described, as follows.
MCF7 cells derived from human breast cancer were cultured (culture temperature: 37° C., pH: 7.0 to 7.4) in a DMEM medium supplemented with 10% (v/v) fetal bovine serum (commercially available from Gibco Life Technologies (US)) so that the MCF7 cells could grow to approximately 80% confluency and used in an experiment to determine an ability to form mammospheres. After MCF7 cells were made to single cells and the number of cell was counted, MCF7 cells were put in to a 24-well plate at 2,000 cells/well. […] Also, a culture media for forming mammospheres was prepared so that a serum-free DMEM/F12 medium could include 2% B27 (commercially available from Invitrogen), 20 ng/ml EGF (commercially available from Sigma), 5 μg/ml insulin (commercially available from Sigma) and 1 μg/ml hydrocortisone (commercially available from Sigma). Cells were cultured in a CO2 incubator for 24 hours and treated with each of the compounds synthesized in the examples at contents of 0.1 μM, 1 μM, 5 μM and 10 μM. Then, the cultured cells were added to the culture media for forming mammospheres so that a final volume of the culture broth could be adjusted to 1 ml. The cells were treated with the same concentrations of phenformin hydrochloride as the control and cultured in a CO2 incubator for 8 days. Thereafter, the mammosphere-forming efficiency and size of the cells were observed. After 8 days, the number of mammospheres having a size of 50 um or more was determined to calculate the mammosphere-forming efficiency (MFE (%)). The MFE (%) is calculated according to the following Equation 1.
When the cells were cultured for 8 days, MFE (%) of the cells on a plate treated with the phenformin hydrochloride and the compounds synthesized in the examples was compared with MFE (%) of the cells on a plate that was not treated with the compounds. The results are listed as the mammosphere formation inhibition rate (%) in the following Table 4, and the mammosphere-forming efficiencies of the respective compounds are shown in FIG. 1.

SMILES	AMPK activation effect at 50 μM (%) (AMPKα; 50 μM, relative to untreated cells)	AMPK activation effect AC150 (AMPKα; concentration at which AMPK activation reached 150%) [µM]	inhibition at 100 µM (HCT116 cells) [%]	Snail Expression Rate (%) (Snail; 1 mM)	Snail Expression Rate (%) (Snail; 10 mM)	MFE (%) (mammosphere-forming efficiency) ([1]; 0.1 μM)	Number of Mammospheres ([1]; 0.1 μM)	MFE (%) (mammosphere-forming efficiency) ([1]; 1 μM)	Number of Mammospheres ([1]; 1 μM)	MFE (%) (mammosphere-forming efficiency) ([1]; 5 μM)	Number of Mammospheres ([1]; 5 μM)	MFE (%) (mammosphere-forming efficiency) ([1]; 10 μM)	Number of Mammospheres ([1]; 10 μM)	inhibition at 0.1 µM ([1]; Homo sapiens, 192 h, 0.1 μM, vs untreated, read-out: Mammosphere formation inhibition rate (%)) [%]	inhibition at 1 µM ([1]; Homo sapiens, 192 h, 1 μM, vs untreated, read-out: Mammosphere formation inhibition rate (%)) [%]	inhibition at 5 µM ([1]; Homo sapiens, 192 h, 5 μM, vs untreated, read-out: Mammosphere formation inhibition rate (%)) [%]	inhibition at 10 µM ([1]; Homo sapiens, 192 h, 10 μM, vs untreated, read-out: Mammosphere formation inhibition rate (%)) [%]	Snail Expression Rate (%) (Snail; 1 μM)	Snail Expression Rate (%) (Snail; 10 μM)
CN(C)C(=N)N=C(N)N [Metformin hydrochloride, reference compound]	130.0	188.3	1.8	70.3	13.6	–	–	–	–	–	–	–	–	–	–	–	–	–	–
[H]/N=C(/N)N/C(=N/[H])NCCc1ccccc1 [Phenformin hydrochloride, reference compound]	–	–	–	–	–	4.2	84 ± 2.8	3.9	79 ± 0.7	5.2	103 ± 1.4	5.8	116 ± 19.1	18.4	23.8	0	-12.1	117.6	53.8
